Patent US8288370B2, “Substituted azetidine compounds of formula (I) useful in the treatment of functional gastrointestinal disorders, IBS, and functional dyspepsia” (Albireo AB, priority 2005, dated 2012)
Counter-ions that a name gives are not always drawn.

How the values were obtained:
human NK1 receptor = target: T1, human NK1 receptor (Homo sapiens, UniProt P25103); test: FLIPR assay, inhibition of human NK1 receptor activation (intracellular Ca2+ increase); assay type: cell-based; details: CHO cells with human NK1 receptor, agonist Substance P; pKB converted from IC50
T1 construct: expressed in transfected cells; cDNA in pRcCMV
T1 sequence (P25103 whole entry): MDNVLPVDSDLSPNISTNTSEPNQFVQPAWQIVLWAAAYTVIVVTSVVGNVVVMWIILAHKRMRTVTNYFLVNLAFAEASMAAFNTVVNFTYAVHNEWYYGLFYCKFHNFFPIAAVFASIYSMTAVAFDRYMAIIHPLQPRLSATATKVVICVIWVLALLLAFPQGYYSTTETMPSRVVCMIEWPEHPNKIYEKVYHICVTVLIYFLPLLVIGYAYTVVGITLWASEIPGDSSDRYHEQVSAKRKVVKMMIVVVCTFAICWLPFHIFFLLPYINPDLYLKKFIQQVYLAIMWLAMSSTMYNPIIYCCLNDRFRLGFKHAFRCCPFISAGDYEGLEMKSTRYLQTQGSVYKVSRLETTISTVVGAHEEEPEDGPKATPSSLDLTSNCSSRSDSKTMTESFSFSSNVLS
Procedure: (§1) Chinese Hamster Ovary (CHO) K1 cells (obtained from ATCC) were stably transfected with the human NK2 receptor (hNK2R cDNA in pRc/CMV, Invitrogen) or the human NK3 receptor (hNK3R in pcDNA 3.1/Hygro (+)/IRES/CD8, Invitrogen vector modified at AstraZeneca EST-Bio UK, Alderley Park). The cells were transfected with the cationic lipid reagent LIPOFECTAMINE™ (Invitrogen) and selection was performed with Geneticin (G418, Invitrogen) at 1 mg/ml for the hNK2R transfected cells and with Hygromycin (Invitrogen) at 500 μg/ml for the hNK3R transfected cells. Single cell clones were collected by aid of Fluorescence Activated Cell Sorter (FACS), tested for functionality in a FLIPR assay (see below), expanded in culture and cryopreserved for future use. CHO cells stably transfected with human NK1 receptors originates from AstraZeneca R&D, Wilmington USA. Human NK1 receptor cDNA (obtained from RNA-PCR from lung tissue) was subcloned into pRcCMV (Invitrogen). Transfection was performed by Calcium Phosphate and selection with 1 mg/ml G418. […]
(§2) The activity of a compound of the invention to inhibit NK1/NK2/NK3 receptor activation measured as NK1/NK2/NK3 receptor mediated increase in intracellular Ca^2+ was assessed by the following procedure: […]

human NK2 receptor = target: T2, human NK2 receptor (Homo sapiens, UniProt P21452); test: FLIPR assay, inhibition of human NK2 receptor activation (intracellular Ca2+ increase); assay type: cell-based; details: CHO cells with human NK2 receptor, agonist NKA; pKB converted from IC50
T2 construct: expressed in transfected cells; hNK2R cDNA in pRc/CMV
T2 sequence (P21452 1-398): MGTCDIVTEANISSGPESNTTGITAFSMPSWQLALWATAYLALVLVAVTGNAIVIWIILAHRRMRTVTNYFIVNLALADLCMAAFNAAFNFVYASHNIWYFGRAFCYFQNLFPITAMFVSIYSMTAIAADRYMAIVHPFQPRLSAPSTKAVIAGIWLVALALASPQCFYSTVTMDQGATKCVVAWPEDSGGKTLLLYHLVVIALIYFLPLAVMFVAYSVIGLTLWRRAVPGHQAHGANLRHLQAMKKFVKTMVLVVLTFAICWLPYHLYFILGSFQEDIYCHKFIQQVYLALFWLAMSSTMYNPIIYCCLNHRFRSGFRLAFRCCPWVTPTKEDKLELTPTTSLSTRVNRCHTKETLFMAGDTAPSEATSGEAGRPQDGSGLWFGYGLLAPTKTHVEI
Procedure: as §1, §2

[1] = target: hERG-encoded potassium channel (Homo sapiens, UniProt Q12809); test: Activity against hERG (planar-array-based voltage clamp, Kiss et al.); assay type: cell-based
hERG-encoded potassium channel, sequence (Q12809 whole entry): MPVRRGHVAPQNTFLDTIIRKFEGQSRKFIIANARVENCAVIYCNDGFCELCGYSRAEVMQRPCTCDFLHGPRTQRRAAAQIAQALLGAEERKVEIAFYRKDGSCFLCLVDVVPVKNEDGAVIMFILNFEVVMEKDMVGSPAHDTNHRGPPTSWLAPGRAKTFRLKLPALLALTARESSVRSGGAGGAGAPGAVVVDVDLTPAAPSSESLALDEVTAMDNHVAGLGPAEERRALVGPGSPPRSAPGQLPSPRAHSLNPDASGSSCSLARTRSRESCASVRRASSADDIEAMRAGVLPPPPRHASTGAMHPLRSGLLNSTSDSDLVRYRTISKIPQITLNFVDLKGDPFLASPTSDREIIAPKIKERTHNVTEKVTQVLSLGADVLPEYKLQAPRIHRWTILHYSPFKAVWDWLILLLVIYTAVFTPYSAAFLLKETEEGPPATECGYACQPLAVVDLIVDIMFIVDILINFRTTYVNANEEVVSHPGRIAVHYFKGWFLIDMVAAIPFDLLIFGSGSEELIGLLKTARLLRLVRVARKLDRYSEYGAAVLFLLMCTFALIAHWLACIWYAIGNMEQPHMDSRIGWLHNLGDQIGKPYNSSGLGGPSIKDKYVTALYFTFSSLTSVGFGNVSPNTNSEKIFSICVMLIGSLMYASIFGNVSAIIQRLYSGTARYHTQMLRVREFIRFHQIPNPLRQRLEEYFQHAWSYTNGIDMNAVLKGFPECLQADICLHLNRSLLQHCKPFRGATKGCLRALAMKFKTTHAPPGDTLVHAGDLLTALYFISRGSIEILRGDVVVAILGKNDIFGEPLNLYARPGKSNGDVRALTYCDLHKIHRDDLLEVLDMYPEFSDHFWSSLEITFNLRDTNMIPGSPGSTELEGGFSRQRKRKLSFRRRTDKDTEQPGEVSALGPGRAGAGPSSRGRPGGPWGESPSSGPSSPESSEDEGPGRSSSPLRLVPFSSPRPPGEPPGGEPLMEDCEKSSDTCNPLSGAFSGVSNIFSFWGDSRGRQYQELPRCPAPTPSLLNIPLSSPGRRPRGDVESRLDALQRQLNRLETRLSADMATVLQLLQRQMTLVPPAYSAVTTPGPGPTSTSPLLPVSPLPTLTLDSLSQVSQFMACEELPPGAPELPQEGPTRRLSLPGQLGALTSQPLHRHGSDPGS
Excerpt: The activity of compounds according to formula I against the hERG-encoded potassium channel can be determined according to Kiss L, et al. Assay Drug Dev Technol. 1 (2003), 127-35: “High throughput ion-channel pharmacology: planar-array-based voltage clamp”.

[2] = Metabolic stability in liver microsomes (intrinsic clearance); assay type: in vitro ADME; details: human, pH 7.4, HLM
Procedure: The rate of biotransformation can be measured as either metabolite(s) formation or the rate of disappearance of the parent compound. The experimental design involves incubation of low concentrations of substrate (usually 1.0 μM) with liver microsomes (usually 0.5 mg/ml) and taking out aliquotes at varying time points (usually 0, 5, 10, 15, 20, 30, 40 min.). The test compound is usually dissolved in DMSO. The DMSO concentration in the incubation mixture is usually 0.1% or less since more solvent can drastically reduce the activities of some CYP450s. Incubations are done in 100 mM potassium phosphate buffer, pH 7.4 and at 37° C. Acetonitrile or methanol is used to stop the reaction. The parent compound is analysed by HPLC-MS. From the calculated half-life, t1/2, the intrinsic clearance, Clint, is estimated by taking microsomal protein concentration and liver weight into account.

CYP3A4 = CYP3A4 (Homo sapiens, UniProt P08684); test: CYP3A4 inhibition assay (Bapiro et al.); assay type: in vitro ADME
CYP3A4, sequence (P08684 whole entry): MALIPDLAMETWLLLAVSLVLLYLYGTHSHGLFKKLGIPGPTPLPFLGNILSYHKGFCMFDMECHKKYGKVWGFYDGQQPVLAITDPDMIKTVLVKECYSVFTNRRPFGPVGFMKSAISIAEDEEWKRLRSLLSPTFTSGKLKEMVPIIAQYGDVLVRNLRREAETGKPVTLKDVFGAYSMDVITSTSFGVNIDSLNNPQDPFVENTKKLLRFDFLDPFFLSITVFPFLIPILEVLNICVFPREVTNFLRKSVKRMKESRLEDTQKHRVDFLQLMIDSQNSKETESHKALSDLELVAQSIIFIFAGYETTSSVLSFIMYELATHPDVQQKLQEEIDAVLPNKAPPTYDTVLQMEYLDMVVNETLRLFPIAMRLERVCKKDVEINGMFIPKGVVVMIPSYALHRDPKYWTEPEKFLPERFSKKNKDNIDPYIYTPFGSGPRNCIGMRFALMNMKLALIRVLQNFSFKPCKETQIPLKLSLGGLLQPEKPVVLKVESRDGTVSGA
Excerpt: It is well known that severe problems such as toxicity may occur if plasma levels of one medication are altered by the co-administration of another drug. […] CYP (cytochrome P450) 3A4 is the most important enzyme in the human liver as a majority of oxidised drugs have been biotransformed by this enzyme. Accordingly, it is undesirable to employ a medication having a significant degree of such liver enzyme inhibiting properties. […] Thus, there is a need for a novel NK receptor antagonist with improved pharmacokinetic properties. The present invention provides compounds with CYP3A4 enzyme inhibiting properties at a low level, as comparatively high IC50 values are obtained in a CYP3A4 inhibiting assay. Said method for determining CYP3A4 inhibition is described in Bapiro et al; Drug Metab. Dispos. 29, 30-35 (2001).
The IC50 values tested according to Bapiro et al; Drug Metab. Dispos. 29, 30-35 (2001) were generally greater than 15 μM.

human NK3 receptor = target: T3, human NK3 receptor (Homo sapiens, UniProt P29371); test: FLIPR assay, inhibition of human NK3 receptor activation (intracellular Ca2+ increase); assay type: cell-based; details: CHO cells with human NK3 receptor, agonist Pro-7-NKB; pKB converted from IC50
T3 construct: expressed in transfected cells; hNK3R in pcDNA 3.1/Hygro (+)/IRES/CD8
T3 sequence (P29371 1-465): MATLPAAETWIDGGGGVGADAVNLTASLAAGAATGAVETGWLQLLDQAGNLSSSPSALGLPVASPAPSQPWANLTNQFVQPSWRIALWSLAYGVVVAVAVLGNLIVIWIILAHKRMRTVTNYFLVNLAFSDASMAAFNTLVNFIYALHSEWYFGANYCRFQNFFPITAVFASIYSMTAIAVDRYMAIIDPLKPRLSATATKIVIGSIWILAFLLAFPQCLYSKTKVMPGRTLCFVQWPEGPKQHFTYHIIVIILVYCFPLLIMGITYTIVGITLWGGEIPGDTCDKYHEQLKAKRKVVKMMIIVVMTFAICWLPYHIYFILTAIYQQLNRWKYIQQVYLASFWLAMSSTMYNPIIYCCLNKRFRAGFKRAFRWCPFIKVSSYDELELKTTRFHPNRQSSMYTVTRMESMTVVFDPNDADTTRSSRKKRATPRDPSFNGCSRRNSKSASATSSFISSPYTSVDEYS
Procedure: as §1, §2

[3] = test system: Human Neurokinin-2 (NK2) Receptor; details: literature statement; cited from earlier work

Kb (human NK1 receptor) [µM] | Kb (human NK2 receptor) [µM] | microsomal CLint at 1 μM [2] [µL/min/mg] | IC50 (CYP3A4) [µM] | Kb (human NK3 receptor) [µM] | SMILES | IC50 [1] [µM] | functional NK2 receptor antagonistic properties [3]
0.002 | 0.0158 | 14 | > 50 | 0.00316 | CN(C[C@@H](CCN1CC(N2CCN3C(=O)CC[C@@H]3C2)C1)c1ccc(F)cc1)C(=O)c1cc(Br)cc(C(F)(F)F)c1 [Ex 1, 3-Bromo-N-((2S)-2-(4-fluorophenyl)-4-{3-[(8aR)-6-oxohexahydropyrrolo[1,2-a]pyrazin-2(1H)-yl]azetidin-1-yl}butyl)-N-methyl-5-(trifluoromethyl)benzamide dihydrochloride] | 12.4 | –
– | – | – | – | – | CN(CC(CCN1CC(N2CCOCC2)C1)c1ccc(Cl)c(Cl)c1)C(=O)c1ccccc1 (stereo not shown) [N-[2-(3,4-dichlorophenyl)-4-(3-morpholin-4-ylazetidin-1-yl)butyl]-N-methylbenzamide] | – | possess functional NK2 receptor antagonistic properties
